Assay results as given in patent US20100076015A1, “Aminopyridine Derivatives” (VANTIA LIMITED, priority 2008, published 2010).

biological target: T1, Human KLK1 (Homo sapiens, UniProt P06870); assay: Determination of the IC50 for KLK1 (fluorogenic substrate H-DVal-Leu-Arg-AFC); assay type: biochemical; details: 37° C.
T1 construct: purchased Callbiochem (Calbiochem)
Method in brief: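 IC50 values reflect residual human KLK1 activity, read as initial rate from optical absorbance change at 410 nm. Incubations ran at 37° C with H-DVal-Leu-Arg-AFC as substrate across a compound concentration series.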

T1 sequence (P06870 25-262): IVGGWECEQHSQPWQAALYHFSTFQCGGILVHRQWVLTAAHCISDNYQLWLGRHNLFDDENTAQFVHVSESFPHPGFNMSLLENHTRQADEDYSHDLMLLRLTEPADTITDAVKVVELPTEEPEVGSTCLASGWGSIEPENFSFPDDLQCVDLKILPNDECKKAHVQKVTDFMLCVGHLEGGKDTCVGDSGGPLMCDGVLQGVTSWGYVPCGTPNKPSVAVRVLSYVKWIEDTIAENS

IC50 [nM]	Compound
3.6	CCC(C)[C@H](NC)C(=O)N[C@@H](C(=O)NCc1ccc(N)nc1)C(C1CCCCC1)C1CCCCC1 (stereo partly drawn) [Example 219, (S)-3-Methyl-2-methylamino-pentanoic acid {(R)-1-[(6-amino-pyridin-3-ylmethyl)-carbamoyl]-2,2-dicyclohexyl-ethyl}-amide]
55.5	NCC(=O)N[C@@H](C(=O)NCc1ccc(N)nc1)C(C1CCCCC1)C1CCCCC1 [Example 220, (R)-2-(2-Amino-acetylamino)-N-(6-amino-pyridin-3-ylmethyl)-3,3-dicyclohexyl-propionamide]
50.5	CNCC(=O)N[C@@H](C(=O)NCc1ccc(N)nc1)C(C1CCCCC1)C1CCCCC1 [Example 221, (R)—N-(6-Amino-pyridin-3-ylmethyl)-3,3-dicyclohexyl-2-(2-methylamino-acetylamino)-propionamide]
39.7	CN(C)CC(=O)N[C@@H](C(=O)NCc1ccc(N)nc1)C(C1CCCCC1)C1CCCCC1 [Example 222, (R)—N-(6-Amino-pyridin-3-ylmethyl)-3,3-dicyclohexyl-2-(2-dimethylamino-acetylamino)-propionamide]
17.4	CN1CCC[C@H]1C(=O)N[C@@H](C(=O)NCc1ccc(N)nc1)C(C1CCCCC1)C1CCCCC1 [Example 223, (S)-1-Methyl-pyrrolidine-2-carboxylic acid {(R)-1-[(6-amino-pyridin-3-ylmethyl)-carbamoyl]-2,2-dicyclohexyl-ethyl}-amide]
61.6	CCC(C)[C@H](N)C(=O)N[C@@H](C(=O)NCc1ccc(N)nc1)[C@H](O)c1ccccc1 (stereo partly drawn) [Example 224, (S)-2-Amino-3-methyl-pentanoic acid {(1R,2R)-1-[(6-amino-pyridin-3-ylmethyl)-carbamoyl]-2-hydroxy-2-phenyl-ethyl}-amide]
51.1	CN1CCC[C@@H]1C(=O)N(C)[C@@H](Cc1ccccc1)C(=O)NCc1ccc(N)nc1 [Example 225, (R)-1-Methyl-pyrrolidine-2-carboxylic acid {(S)-1-[(6-amino-pyridin-3-ylmethyl)-carbamoyl]-2-phenyl-ethyl}-methyl-amide]
20.3	Cc1[nH]c(C(=O)N[C@@H](Cc2cccc(C(F)(F)F)c2)C(=O)NCc2ccc(N)nc2)c(C)c1C [Example 230, 3,4,5-Trimethyl-1H-pyrrole-2-carboxylic acid [(S)-1-[(6-amino-pyridin-3-ylmethyl)-carbamoyl]-2-(3-trifluoromethyl-phenyl)-ethyl]-amide]
9	Cc1cc(C)c(C(=O)N[C@@H](Cc2cccc(F)c2)C(=O)NCc2ccc(N)nc2)[nH]1 [Example 236, 3,5-Dimethyl-1H-pyrrole-2-carboxylic acid [(S)-1-[(6-amino-pyridin-3-ylmethyl)-carbamoyl]-2-(3-fluoro-phenyl)-ethyl]-amide]
10.9	Cc1cc(C)c(C(=O)N[C@@H](Cc2ccccc2)C(=O)NCc2ccc(N)nc2)[nH]1 [Example 237, 3,5-Dimethyl-1H-pyrrole-2-carboxylic acid {(S)-1-[(6-amino-pyridin-3-ylmethyl)-carbamoyl]-2-phenyl-ethyl}-amide]
35.2	Cc1cc(C)c(C(=O)N[C@@H](CC2CCCCC2)C(=O)NCc2ccc(N)nc2)[nH]1 [Example 238, 3,5-Dimethyl-1H-pyrrole-2-carboxylic acid {(S)-1-[(6-amino-pyridin-3-ylmethyl)-carbamoyl]-2-cyclohexyl-ethyl}-amide]
6.5	Cc1cc(C)c(C(=O)N[C@@H](Cc2ccccc2Cl)C(=O)NCc2ccc(N)nc2)[nH]1 [Example 239, 3,5-Dimethyl-1H-pyrrole-2-carboxylic acid [(S)-1-[(6-amino-pyridin-3-ylmethyl)-carbamoyl]-2-(2-chloro-phenyl)-ethyl]-amide]
1.5	Cc1cc(C)c(C(=O)N[C@@H](Cc2ccccc2C(F)(F)F)C(=O)NCc2ccc(N)nc2)[nH]1 [Example 240, 3,5-Dimethyl-1H-pyrrole-2-carboxylic acid [(S)-1-[(6-amino-pyridin-3-ylmethyl)-carbamoyl]-2-(2-trifluoromethyl-phenyl)-ethyl]-amide]
3.8	Cc1cc(C)c(C(=O)N[C@@H](Cc2c[nH]c3ccccc23)C(=O)NCc2ccc(N)nc2)[nH]1 [Example 241, 3,5-Dimethyl-1H-pyrrole-2-carboxylic acid [(S)-1-[(6-amino-pyridin-3-ylmethyl)-carbamoyl]-2-(1H-indol-3-yl)-ethyl]-amide]
7.8	Cc1cc(C)c(C(=O)N[C@@H](Cc2ccccc2C)C(=O)NCc2ccc(N)nc2)[nH]1 [Example 244, 3,5-Dimethyl-1H-pyrrole-2-carboxylic acid {(S)-1-[(6-amino-pyridin-3-ylmethyl)-carbamoyl]-2-o-tolyl-ethyl}-amide]
3.5	Cc1cc(C)c(C(=O)N[C@@H](Cc2ccc(Cl)cc2)C(=O)NCc2ccc(N)nc2)[nH]1 [Example 246, 3,5-Dimethyl-1H-pyrrole-2-carboxylic acid [(S)-1-[(6-amino-pyridin-3-ylmethyl)-carbamoyl]-2-(4-chloro-phenyl)-ethyl]-amide]

IC50 [nM]	Compound
200	Cc1cc(C)c(C(=O)N[C@@H](Cc2ccc(O)cc2)C(=O)NCc2ccc(N)nc2)[nH]1 [Example 247, 3,5-Dimethyl-1H-pyrrole-2-carboxylic acid [(S)-1-[(6-amino-pyridin-3-ylmethyl)-carbamoyl]-2-(4-hydroxy-phenyl)-ethyl]-amide]
6.9	Cc1cc(C)c(C(=O)N[C@@H](Cc2cc(F)cc(F)c2)C(=O)NCc2ccc(N)nc2)[nH]1 [Example 249, 3,5-Dimethyl-1H-pyrrole-2-carboxylic acid [(S)-1-[(6-amino-pyridin-3-ylmethyl)-carbamoyl]-2-(3,5-difluoro-phenyl)-ethyl]-amide]
0.8	Cc1cc(C)c(C(=O)N[C@@H](Cc2csc3ccccc23)C(=O)NCc2ccc(N)nc2)[nH]1 [Example 250, 3,5-Dimethyl-1H-pyrrole-2-carboxylic acid {(S)-1-[(6-amino-pyridin-3-ylmethyl)-carbamoyl]-2-benzo[b]thiophen-3-yl-ethyl}-amide]
128	Cc1cc(C)c(C(=O)N[C@@H](Cc2c(F)c(F)c(F)c(F)c2F)C(=O)NCc2ccc(N)nc2)[nH]1 [Example 251, 3,5-Dimethyl-1H-pyrrole-2-carboxylic acid {(S)-1-[(6-amino-pyridin-3-ylmethyl)-carbamoyl]-2-pentafluorophenyl-ethyl}-amide]
43.2	Cc1cc(C)c(C(=O)N[C@@H](Cc2ccc(-c3ccccc3)cc2)C(=O)NCc2ccc(N)nc2)[nH]1 [Example 252, 3,5-Dimethyl-1H-pyrrole-2-carboxylic acid {(S)-1-[(6-amino-pyridin-3-ylmethyl)-carbamoyl]-2-biphenyl-4-yl-ethyl}-amide]
12.5	Cc1ccc(C[C@H](NC(=O)c2[nH]c(C)cc2C)C(=O)NCc2ccc(N)nc2)cc1 [Example 253, 3,5-Dimethyl-1H-pyrrole-2-carboxylic acid {(S)-1-[(6-amino-pyridin-3-ylmethyl)-carbamoyl]-2-p-tolyl-ethyl}-amide]
37.2	COc1ccc(C[C@H](NC(=O)c2[nH]c(C)cc2C)C(=O)NCc2ccc(N)nc2)cc1 [Example 254, 3,5-Dimethyl-1H-pyrrole-2-carboxylic acid [(S)-1-[(6-amino-pyridin-3-ylmethyl)-carbamoyl]-2-(4-methoxy-phenyl)-ethyl]-amide]
105	CCOc1ccc(C[C@H](NC(=O)c2[nH]c(C)cc2C)C(=O)NCc2ccc(N)nc2)cc1 [Example 255, 3,5-Dimethyl-1H-pyrrole-2-carboxylic acid [(S)-1-[(6-amino-pyridin-3-ylmethyl)-carbamoyl]-2-(4-ethoxy-phenyl)-ethyl]-amide]
122	Cc1cc(C)c(C(=O)N[C@@H](Cc2ccc(C(C)(C)C)cc2)C(=O)NCc2ccc(N)nc2)[nH]1 [Example 256, 3,5-Dimethyl-1H-pyrrole-2-carboxylic acid [(S)-1-[(6-amino-pyridin-3-ylmethyl)-carbamoyl]-2-(4-tert-butyl-phenyl)-ethyl]-amide]
12.1	Cc1cc(C)c(C(=O)N[C@@H](Cc2ccc3ccccc3n2)C(=O)NCc2ccc(N)nc2)[nH]1 [Example 257, 3,5-Dimethyl-1H-pyrrole-2-carboxylic acid {(S)-1-[(6-amino-pyridin-3-ylmethyl)-carbamoyl]-2-quinolin-2-yl-ethyl}-amide]
10.3	Cc1cc[nH]c1C(=O)N[C@@H](Cc1ccc(C(F)(F)F)cc1)C(=O)NCc1ccc(N)nc1 [Example 258, 3-Methyl-1H-pyrrole-2-carboxylic acid [(S)-1-[(6-amino-pyridin-3-ylmethyl)-carbamoyl]-2-(4-trifluoromethyl-phenyl)-ethyl]-amide]
85.4	Cc1c[nH]c(C(=O)N[C@@H](Cc2cccc(Cl)c2)C(=O)NCc2ccc(N)nc2)c1 [Example 259, 4-Methyl-1H-pyrrole-2-carboxylic acid [(S)-1-[(6-amino-pyridin-3-ylmethyl)-carbamoyl]-2-(3-chloro-phenyl)-ethyl]-amide]
150	Cc1c[nH]c(C(=O)N[C@@H](Cc2ccc(F)cc2)C(=O)NCc2ccc(N)nc2)c1 [Example 260, 4-Methyl-1H-pyrrole-2-carboxylic acid [(S)-1-[(6-amino-pyridin-3-ylmethyl)-carbamoyl]-2-(4-fluoro-phenyl)-ethyl]-amide]
13.2	Cc1cc[nH]c1C(=O)N[C@@H](Cc1ccc(F)cc1)C(=O)NCc1ccc(N)nc1 [Example 261, 3-Methyl-1H-pyrrole-2-carboxylic acid [(S)-1-[(6-amino-pyridin-3-ylmethyl)-carbamoyl]-2-(4-fluoro-phenyl)-ethyl]-amide]
28.3	Cc1cc[nH]c1C(=O)N[C@@H](Cc1ccccc1Cl)C(=O)NCc1ccc(N)nc1 [Example 262, 3-Methyl-1H-pyrrole-2-carboxylic acid [(S)-1-[(6-amino-pyridin-3-ylmethyl)-carbamoyl]-2-(2-chloro-phenyl)-ethyl]-amide]
